According to US20220289794A1, “SYNTHETIC ANTIMICROBIAL PEPTIDES” (priority 2019, published 2022):
≈ marks a conversion by molar mass, not a printed value. Read-outs that look alike come from different tables or passages of the source. Positions of bridges follow the written chain, without caps; N, C: chain ends. Residues, ends and D or L forms follow the SMILES beside them.

How the values were obtained:
[1] = system: Escherichia coli (ATCC 25922); conditions: ATCC 25922
[2] = system: Pseudomonas aeruginosa (ATCC 27883); format: cell-based; conditions: ATCC 27883
Description: (§1) All bacteria pathogens tested clinically reported multi-drug resistant strains. The antibacterial activity was tested against Gram-negative strains namely; Pseudomonas aeruginosa (PSA), Klebsiella pneumoniae (KPC), Escherichia coli (E. coli) and Gram-positive Methicillin-resistant Staphylococcus aureus (MRSA). The minimum inhibitory concentration (MIC) is the lowest concentration of the antibiotic that inhibits microbial growths. MIC is determined by visual inspection or use of spectrophotometer plate reader to determine media turbidity. On the other hand, the minimum bactericidal concentration (MBC) is the lowest concentration that kills […] of bacterial growth. Cytotoxicity of peptides in the hepatic cell line, human skin fibroblast cell line, heart/myocardium cells, and human lung fibroblast cells is shown in FIGS. 36-46). […] (IFX-315)-Au-NP with antibiotics are shown in FIGS. 49-58 when the gold nanoparticles are formed by the peptide followed by addition of the antibiotic. […] (IFX-301) with antibiotics (1:1 ratio) first and then used in the synthesis of Au-NP in antibacterial activities is shown in FIGS. 59-68.
(§2) The MBC is identified by determining the lowest concentration of antibacterial agent that reduces the viability (concentration of peptides necessary to achieve a bactericidal effect) of the initial bacterial inoculum by ≥99.9%.

[3] = system: Escherichia coli (ATCC 25922); format: cell-based
Description: as §1, §2

[4] = system: Methicillin-resistant Staphylococcus aureus MRSA (ATCC BAA-1556); format: cell-based
Description: as §1, §2

[5] = system: Klebsiella pneumoniae (ATCC BAA-1705); conditions: ATCC BAA-1705
[6] = system: Methicillin-resistant Staphylococcus aureus MRSA (ATCC BAA-1556); conditions: ATCC BAA-1556
[7] = system: Pseudomonas aeruginosa (ATCC 27883); conditions: ATCC 27883
[8] = system: Enterococcus faecium ATCC 27270; conditions: ATCC 27270
[9] = system: Methicillin-resistant Staphylococcus aureus MRSA (ATCC BAA-1556); experiment: microbe, parasite or virus in culture; conditions: ATCCBAA1556|MRSA, 24 h
[10] = system: Escherichia coli (E. Coli, ATCC 25922); conditions: Table 25; Escherichia coli (ATCC 25922); antibiotic alone
MRSA (ATCC BAA-1556) = conditions: MRSA (ATCC BAA-1556), antibiotic alone
[11] = system: Klebsiella pneumoniae (KPC, ATCC BAA-1705); experiment: microbe, parasite or virus in culture; conditions: ATCCBAA1705, 24 h
[12] = system: Pseudomonas aeruginosa (PSA, ATCC 27883); experiment: microbe, parasite or virus in culture; conditions: ATCC27883, 24 h
[13] = system: Klebsiella pneumoniae (KPC, ATCC BAA-1705); conditions: Table 26; Klebsiella pneumoniae (ATCC BAA-1705); antibiotic alone
[14] = system: Pseudomonas aeruginosa (PSA, ATCC 27883); experiment: Synergy checkerboard assay (FIC index); format: cell-based; conditions: Pseudomonas aeruginosa (ATCC 27883), antibiotic alone
[15] = system: Escherichia coli (E. Coli, ATCC 25922); experiment: microbe, parasite or virus in culture; conditions: ATCC25922, 24 h

SMILES | E. coli (ATCC 25922) MIC [1] [µg/mL] | E. coli (ATCC 25922) MBC [3] [µg/mL] | MRSA (ATCC BAA-1556) MBC [4] [µg/mL] | KPC (ATCC BAA-1705) MIC [5] [µg/mL] | MRSA (ATCC BAA-1556) MIC [6] [µg/mL] | PSA (ATCC 27883 MIC) [7] [µg/mL] | MIC Escherichia coli (ATCC 25922) (E. coli) [µg/mL] | MIC MRSA ATCC BAA-1556 (MRSA) [µg/mL] | MIC Pseudomonas aeruginosa (ATCC 27883) (PSA) [µg/mL] | MIC Klebsiella pneumoniae (ATCC BAA-1705) (KPC) [µg/mL] | also measured
N=C(N)NCCC[C@@H]1NC(=O)[C@H](CCCNC(=N)N)NC(=O)[C@H](CCCNC(=N)N)NC(=O)[C@H](CCCNC(=N)N)NC(=O)[C@@H](NC(=O)[C@H](Cc2c[nH]c3ccccc23)NC(=O)[C@H](Cc2c[nH]c3ccccc23)NC(=O)[C@H](Cc2c[nH]c3ccccc23)NC(=O)[C@@H](N)Cc2c[nH]c3ccccc23)CSSC[C@@H](C(=O)O)NC1=O [IFX-334] (H-WWWWCRRRRC-OH; disulfide 5-10) | 32 | 64 | 64 | 256 | 32 | 256 | – | – | – | – | PSA (ATCC 27883) MBC [2]: 256 µg/mL
N=C(N)NCCC[C@H](NC(=O)[C@H](CCCNC(=N)N)NC(=O)[C@H](CCCNC(=N)N)NC(=O)[C@H](CCCNC(=N)N)NC(=O)[C@H](CS)NC(=O)[C@H](Cc1c[nH]c2ccccc12)NC(=O)[C@H](Cc1c[nH]c2ccccc12)NC(=O)[C@H](Cc1c[nH]c2ccccc12)NC(=O)[C@@H](N)Cc1c[nH]c2ccccc12)C(=O)N[C@@H](CS)C(=O)O [IFX-332] (H-WWWWCRRRRC-OH) | 128 | 256 | 128 | 512 | 64 | 256 | – | – | – | – | –
N=C(N)NCCC[C@@H]1NC(=O)[C@H](CCCNC(=N)N)NC(=O)[C@H](CCCNC(=N)N)NC(=O)[C@H](Cc2c[nH]c3ccccc23)NC(=O)[C@H](Cc2c[nH]c3ccccc23)NC(=O)[C@H](Cc2c[nH]c3ccccc23)NC(=O)[C@H](Cc2c[nH]c3ccccc23)NC(=O)[C@H](CCCNC(=N)N)NC(=O)[C@H](CCCNC(=N)N)NC1=O [[R5W4] (IFX-301)] | – | – | – | – | – | – | 16 (≈ 10.5 µM) | 4 (≈ 2.62 µM) | 32 (≈ 21 µM) | 32 (≈ 21 µM) | MIC (MRSA): 4 µg/mL (≈ 2.62 µM); MIC [8]: 8 µg/mL (≈ 5.24 µM)
NC[C@H]1O[C@H](O[C@H]2[C@H](O)[C@@H](O[C@H]3O[C@H](CO)[C@@H](O)[C@H](N)[C@H]3O)[C@H](N)C[C@@H]2N)[C@H](N)C[C@@H]1O [Tobramycin] | – | – | – | – | – | – | – | – | – | – | MIC ([9]; read-out: MRSA (ATCC BAA-1556) MIC, Table 30, [R5W4K] (IFX-315), antibiotics alone and PHY-MIX (1:1 w/w)): 0.5 µg/mL (≈ 1.07 µM); MIC ([9]; read-out: MRSA (ATCC BAA-1556) MIC, Table 31, [R5W4] (IFX-301), antibiotics alone and PHY-MIX (1:1 w/w)): 0.5 µg/mL (≈ 1.07 µM); MIC of antibiotic [10]: 8 µg/mL; MIC of antibiotic (MRSA (ATCC BAA-1556)): 0.5 µg/mL; MIC of antibiotic (MRSA (ATCC BAA-1556); Table 25): 0.5 µg/mL; MIC ([11]; read-out: Klebsiella pneumoniae (ATCC BAA-1705) MIC, Table 29, [R6W4] (IFX-318), antibiotics alone and PHY-MIX (1:1 w/w)): 16 µg/mL (≈ 34.2 µM); MIC ([11]; read-out: Klebsiella pneumoniae (ATCC BAA-1705) MIC, Table 30, [R5W4K] (IFX-315), antibiotics alone and PHY-MIX (1:1 w/w)): 16 µg/mL (≈ 34.2 µM); MIC ([11]; read-out: Klebsiella pneumoniae (ATCC BAA-1705) MIC, Table 31, [R5W4] (IFX-301), antibiotics alone and PHY-MIX (1:1 w/w)): 16 µg/mL (≈ 34.2 µM); MIC ([12]; read-out: Pseudomonas aeruginosa (ATCC 27883) MIC, Table 29, [R6W4] (IFX-318), antibiotics alone and PHY-MIX (1:1 w/w)): 0.5 µg/mL (≈ 1.07 µM); MIC ([12]; read-out: Pseudomonas aeruginosa (ATCC 27883) MIC, Table 30, [R5W4K] (IFX-315), antibiotics alone and PHY-MIX (1:1 w/w)): 0.5 µg/mL (≈ 1.07 µM); MIC ([12]; read-out: Pseudomonas aeruginosa (ATCC 27883) MIC, Table 31, [R5W4] (IFX-301), antibiotics alone and PHY-MIX (1:1 w/w)): 0.5 µg/mL (≈ 1.07 µM); MIC of antibiotics [13]: 16 µg/mL; MIC of antibiotic ([14]; Table 26): 0.5 µg/mL; antibiotic MIC ([14]; Table 27): 0.5 µg/mL; MIC ([15]; read-out: Escherichia coli (ATCC 25922) MIC, Table 30, [R5W4K] (IFX-315), antibiotics alone and PHY-MIX (1:1 w/w)): 8 µg/mL (≈ 17.1 µM); MIC ([15]; read-out: Escherichia coli (ATCC 25922) MIC, Table 31, [R5W4] (IFX-301), antibiotics alone and PHY-MIX (1:1 w/w)): 8 µg/mL (≈ 17.1 µM)
N=C(N)NCCC[C@@H]1NC(=O)[C@H](CCCNC(=N)N)NC(=O)[C@H](CCCNC(=N)N)NC(=O)[C@H](Cc2c[nH]c3ccccc23)NC(=O)[C@H](Cc2c[nH]c3ccccc23)NC(=O)[C@H](Cc2c[nH]c3ccccc23)NC(=O)[C@H](Cc2c[nH]c3ccccc23)NC(=O)[C@H](Cc2c[nH]c3ccccc23)NC(=O)[C@H](CCCNC(=N)N)NC(=O)[C@H](CCCNC(=N)N)NC1=O [[R5W5] (IFX-314)] (cyclo(RRRRRWWWWW)) | – | – | – | – | – | – | 16 (≈ 9.35 µM) | 4 (≈ 2.34 µM) | 32 (≈ 18.7 µM) | 32 (≈ 18.7 µM) | –
